From PubChem BioAssay (NCI)
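How tested: cells in 96-well plates exposed to compound for 48 hours at five concentrations. Here, GI50 denotes the concentration required for 50% inhibition of growth. TGI is the concentration that stops growth completely.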

Columns and labels:
Assay in all cases: NCI-60 cell line screen, 48 h
SK-MEL-28 melanoma = system: SK-MEL-28 melanoma
RXF 393 renal = system: RXF 393 renal
OVCAR-4 ovarian = system: OVCAR-4 ovarian
HCC-2998 colon = system: HCC-2998 colon
CAKI-1 renal = system: CAKI-1 renal
TK-10 renal = system: TK-10 renal
DU-145 prostate = system: DU-145 prostate
PC-3 prostate = system: PC-3 prostate
KM12 colon = system: KM12 colon
HS 578T breast = system: HS 578T breast

| Structure (SMILES) | TGI (SK-MEL-28 melanoma) | TGI (RXF 393 renal) | TGI (OVCAR-4 ovarian) | TGI (HCC-2998 colon) | TGI (CAKI-1 renal) | TGI (TK-10 renal) | TGI (DU-145 prostate) | TGI (PC-3 prostate) | TGI (KM12 colon) | TGI (HS 578T breast) | GI50 (SK-MEL-28 melanoma) | GI50 (TK-10 renal) | GI50 (RXF 393 renal) | GI50 (HCC-2998 colon) | GI50 (KM12 colon) | GI50 (OVCAR-4 ovarian) | GI50 (CAKI-1 renal) | GI50 (DU-145 prostate) | GI50 (PC-3 prostate) | GI50 (HS 578T breast) |
| --- | --- | --- | --- | --- | --- | --- | --- | --- | --- | --- | --- | --- | --- | --- | --- | --- | --- | --- | --- | --- |
| CC1(C)Oc2ccccc2[N+]([O-])=C1c1ccccc1 | > 100 µM | > 100 µM | > 100 µM | > 100 µM | > 100 µM |  |  |  |  |  |  |  |  |  |  |  |  |  |  |  |
| COc1cc(=O)oc(/C=C/C=C/C=C/C(C)=C\C2(C)OC(C)C(C)(O)C2O)c1C (centres undefined) | > 100 µM |  |  |  | > 100 µM | > 100 µM | > 100 µM | > 100 µM | > 100 µM | > 100 µM |  |  |  |  |  |  |  |  |  |  |
| Cc1nc2ccccc2c(/C=C/c2ccccc2)c1C(=O)/C=C/c1ccccc1 | 3.3 µM | 3.22 µM |  | 3.53 µM |  | 6.81 µM |  |  | 4.7 µM |  | 1.83 µM | 2.58 µM | 1.78 µM | 1.86 µM | 1.97 µM |  |  |  |  |  |
| N/C(=N\N=C\c1ccc(O)c(O)c1)NO | > 100 µM | > 100 µM | > 100 µM | > 100 µM | > 100 µM | > 100 µM |  |  | > 100 µM |  |  |  |  |  |  |  |  |  |  |  |
| CCC(C)(C)NS(=O)(=O)c1ccccc1 | > 100 µM | > 100 µM | > 100 µM | > 100 µM | > 100 µM | > 100 µM |  |  | > 100 µM |  |  |  |  |  |  |  |  |  |  |  |
| CCOC(=O)NC(=O)c1cn(C2OC(COC(=O)CCCCCCCCC(=O)OCC3OC(n4cc(C(=O)NC(=O)OCC)c(=O)[nH]c4=O)C4OC(C)(C)OC34)C3OC(C)(C)OC32)c(=O)[nH]c1=O (centres undefined) | > 100 µM | > 100 µM | > 100 µM | > 100 µM | > 100 µM | > 100 µM |  |  | > 100 µM |  |  |  |  |  |  |  |  |  |  |  |
| N.N.NCCCCCN.O=C([O-])CC(=O)[O-].O=C([O-])CC(=O)[O-].[Pt+4].[Pt+4] | > 100 µM | > 100 µM |  | > 100 µM |  | > 100 µM |  |  | > 100 µM |  | > 100 µM | > 100 µM | > 100 µM | > 100 µM | > 100 µM |  |  |  |  |  |
| CCCCCN(CCCCC)C(=O)[C@H](CCC(=O)OCc1ccccc1)NC(=O)c1cc2ccccc2[nH]1 | > 100 µM | > 100 µM | > 100 µM | > 100 µM | > 100 µM |  |  |  | > 100 µM |  |  |  |  |  |  |  |  |  |  |  |
| Cc1ccc(-c2cc(=O)c3cc(C)c(C)c(C(=O)O)c3o2)cc1[N+](=O)[O-] | > 100 µM | > 100 µM | > 100 µM |  | > 100 µM | > 100 µM |  |  | > 100 µM |  |  |  |  |  |  |  |  |  |  |  |
| COc1c(Cl)[c]([Hg][O]C(C)=O)c(NCC(C)=O)c(OC)[c]1[Hg][O]C(C)=O | 26.2 µM | 30.4 µM | 79.7 µM | 39.1 µM | 35.1 µM | 27.7 µM |  |  | > 100 µM |  | 13.3 µM | 14.3 µM | 14.4 µM | 16.9 µM | 31.7 µM | 20 µM | 20.2 µM |  |  |  |
| COc1ccc(C(=O)c2cc(C)c(OC)c(C)c2)c(OC)c1N(C(=O)CCl)C(=O)CCl | 25.3 µM |  | > 67 µM | 7.35 µM | 33.5 µM | > 100 µM | 16.8 µM | 18.4 µM | 6.07 µM | > 100 µM | 0.168 µM | 13.4 µM |  | 0.0803 µM | 0.0421 µM | 0.719 µM | 0.0414 µM | 0.0388 µM | 0.0467 µM | 0.0333 µM |
| COC(=O)[C@H](Cc1cn(C)cn1)NC(=O)[C@@H](NC(=O)Nc1cc(C(F)(F)F)cc(C(F)(F)F)c1)C(C)(C)C | > 10 µM | > 10 µM | > 10 µM | > 10 µM | > 10 µM | > 10 µM | > 10 µM | > 10 µM | > 10 µM |  | > 10 µM | > 10 µM | > 10 µM | > 10 µM | > 10 µM | > 10 µM | > 10 µM | > 10 µM | > 10 µM |  |
| C#CCN(Cc1nc2cc(C(F)(F)F)ccc2nc1-c1ccccc1)c1ccc(F)cc1 | > 100 µM | > 100 µM | > 100 µM |  | 92.2 µM | 59 µM | > 100 µM | > 100 µM | 60.9 µM | > 100 µM | 44.2 µM | 19.2 µM | 41 µM |  | 21.3 µM | 33.4 µM | 62.2 µM | 39.4 µM | 32 µM | 34.7 µM |
| C/C=C(\C)C(=O)N1c2ccccc2CC1c1c(C)[nH]c2ccccc12 (centres undefined) | > 100 µM | > 100 µM | > 100 µM | > 100 µM | > 100 µM | > 100 µM |  |  | > 100 µM |  |  |  |  |  |  |  |  |  |  |  |
| CC(C)C1NC(=O)[C@H](C)OC(=O)[C@@H](C(C)C)NC(=O)[C@@H](C)OC(=O)C(C(C)C)NC(=O)[C@H](C)OC1=O (some centres undefined) | > 100 µM |  | > 100 µM | > 100 µM | > 100 µM | > 100 µM |  |  | > 100 µM |  |  |  |  |  |  |  |  |  |  |  |
| CC1(C)OC2COC(c3[nH]nc4c(=O)[nH]c(=O)[nH]c34)C2O1 (centres undefined) | > 100 µM | > 100 µM | > 100 µM |  | > 100 µM | > 100 µM | > 100 µM | > 100 µM | > 100 µM | > 100 µM |  |  |  |  |  |  |  |  |  |  |
| Nc1nc(CC2(O)CCCCC2)cc(-c2ccccc2)n1 | > 100 µM | > 57.5 µM | > 76.8 µM | > 81 µM | > 100 µM | > 100 µM |  |  | > 57 µM |  |  |  |  |  |  |  |  |  |  |  |
| O=C(O)CNC(=O)C1NC(C(F)(F)F)(C(F)(F)F)OC1(C(F)(F)F)C(F)(F)F (centres undefined) | > 100 µM | > 100 µM | > 100 µM |  | > 100 µM | > 100 µM | > 100 µM | > 100 µM | > 100 µM | > 100 µM |  |  |  |  |  |  |  |  |  |  |
| O=C(COC(=O)c1cccc2c(=O)c3ccccc3[nH]c12)Nc1ccc(S(=O)(=O)Nc2ncccn2)cc1 | > 100 µM | > 100 µM | > 100 µM | > 100 µM | > 100 µM | > 100 µM |  |  | > 100 µM |  |  |  |  |  |  |  |  |  |  |  |
| COc1ccc2c(c1)c(-c1ccc(-c3cn(C)c4ccc(OC)cc34)o1)cn2C | 80.1 µM | 44 µM | 4.08 µM |  | > 100 µM | > 100 µM | > 100 µM |  | 7.08 µM | 20.1 µM | 14 µM | 11 µM | 10.4 µM |  | 2.73 µM | 2.06 µM | 17.1 µM | > 100 µM |  | 4.2 µM |
